Data on 48 molecules can be found in ChEMBL document CHEMBL1201862, “PubChem BioAssay data set” (2004).

In test [1] the target is T1, Heat shock factor protein 1 (Mus musculus, UniProt P38532).
T1 sequence (P38532 whole entry): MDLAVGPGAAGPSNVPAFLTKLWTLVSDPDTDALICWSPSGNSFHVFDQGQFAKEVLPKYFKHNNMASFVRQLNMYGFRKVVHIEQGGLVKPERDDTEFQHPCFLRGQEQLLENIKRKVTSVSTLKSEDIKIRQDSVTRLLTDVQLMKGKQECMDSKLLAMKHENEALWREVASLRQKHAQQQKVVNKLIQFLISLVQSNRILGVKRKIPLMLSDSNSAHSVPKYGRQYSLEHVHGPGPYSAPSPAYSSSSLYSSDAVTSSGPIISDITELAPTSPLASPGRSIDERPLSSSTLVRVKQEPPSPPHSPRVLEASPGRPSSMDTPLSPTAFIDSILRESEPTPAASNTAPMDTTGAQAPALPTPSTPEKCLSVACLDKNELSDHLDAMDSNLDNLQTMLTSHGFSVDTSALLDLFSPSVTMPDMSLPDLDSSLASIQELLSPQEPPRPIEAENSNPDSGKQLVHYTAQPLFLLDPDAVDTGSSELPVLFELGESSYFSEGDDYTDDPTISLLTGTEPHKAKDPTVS
Nature of the test: inhibition of MG132-induced HSE-luciferase signal, confirmation, cell-based, NIH3T3, luminescence, dose retest (AID 2382).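 Note: NIH3T3 fibroblasts with HSF1-driven luciferase reporter stressed by proteasome inhibitor MG132; luminescence from HSF1-driven luciferase expression after 8 hours of MG132 stress.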 Format: functional.

Test [2] concerns the target T1, Heat shock factor protein 1. Nature of the test: HSF1 potentiators in luciferase reporter cells, confirmation, cell-based, NIH3T3, luminescence, dose retest (AID 435004).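 Note: stress induced by proteasome inhibitor MG132 added 30 min after compound; luciferase reporter driven by HSF1 response element in NIH3T3 cells; actives raise luminescence as potentiators of the MG132 stress response.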 The test is classed as functional. On the technique in general: Reporter assays use an easily measured gene product as a stand-in for the process of interest.
Test [3] addresses Cytochrome P450 2D6 (Homo sapiens, UniProt P10635).
Test [4] deals with Cytochrome P450 3A4 (Homo sapiens, UniProt P08684).
Cytochrome P450 3A4, sequence (P08684 whole entry): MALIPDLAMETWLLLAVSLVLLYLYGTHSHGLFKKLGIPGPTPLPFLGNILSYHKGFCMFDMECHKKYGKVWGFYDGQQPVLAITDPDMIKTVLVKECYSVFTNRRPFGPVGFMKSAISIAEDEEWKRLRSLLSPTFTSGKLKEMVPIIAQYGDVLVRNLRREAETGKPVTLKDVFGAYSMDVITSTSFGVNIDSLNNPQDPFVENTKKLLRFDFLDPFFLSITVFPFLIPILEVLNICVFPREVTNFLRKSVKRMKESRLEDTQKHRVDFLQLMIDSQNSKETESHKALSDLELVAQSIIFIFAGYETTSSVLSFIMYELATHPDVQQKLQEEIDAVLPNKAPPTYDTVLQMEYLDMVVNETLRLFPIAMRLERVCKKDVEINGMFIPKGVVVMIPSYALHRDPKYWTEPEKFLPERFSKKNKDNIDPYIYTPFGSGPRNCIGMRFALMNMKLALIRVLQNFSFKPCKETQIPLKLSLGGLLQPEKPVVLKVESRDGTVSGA
The target in test [5] is Cytochrome P450 2C9 (Homo sapiens, UniProt P11712).
Cytochrome P450 2C9, sequence (P11712 whole entry): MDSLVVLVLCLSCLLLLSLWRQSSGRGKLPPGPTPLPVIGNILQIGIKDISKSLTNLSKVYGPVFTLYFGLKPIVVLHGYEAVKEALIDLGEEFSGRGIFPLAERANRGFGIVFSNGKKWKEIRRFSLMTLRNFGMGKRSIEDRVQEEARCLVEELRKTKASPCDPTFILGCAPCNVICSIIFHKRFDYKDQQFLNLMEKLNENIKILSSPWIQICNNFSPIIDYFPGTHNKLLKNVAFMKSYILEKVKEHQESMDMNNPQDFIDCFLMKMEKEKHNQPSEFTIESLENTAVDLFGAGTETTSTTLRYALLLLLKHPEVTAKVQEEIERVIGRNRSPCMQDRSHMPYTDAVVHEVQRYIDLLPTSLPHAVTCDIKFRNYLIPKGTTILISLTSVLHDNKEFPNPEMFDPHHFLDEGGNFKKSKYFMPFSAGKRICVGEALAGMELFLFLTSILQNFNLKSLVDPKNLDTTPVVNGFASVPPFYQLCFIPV
The target in test [6] is T2, Corticotropin-releasing factor receptor 2/Corticotropin-releasing factor-binding protein (Homo sapiens, UniProt P24387+Q13324).
T2 sequence (Q13324 whole entry): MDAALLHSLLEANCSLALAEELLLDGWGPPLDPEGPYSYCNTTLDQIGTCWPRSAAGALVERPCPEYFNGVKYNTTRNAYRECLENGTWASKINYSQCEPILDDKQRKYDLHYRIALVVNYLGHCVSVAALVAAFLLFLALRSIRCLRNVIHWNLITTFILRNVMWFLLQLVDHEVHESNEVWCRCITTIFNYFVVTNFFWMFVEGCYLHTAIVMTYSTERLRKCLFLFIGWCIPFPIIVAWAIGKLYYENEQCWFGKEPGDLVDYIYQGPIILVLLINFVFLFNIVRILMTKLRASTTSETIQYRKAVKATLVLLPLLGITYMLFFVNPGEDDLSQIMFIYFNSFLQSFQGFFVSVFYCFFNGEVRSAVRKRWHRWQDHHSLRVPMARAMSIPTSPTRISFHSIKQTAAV
T2 sequence (P24387 whole entry): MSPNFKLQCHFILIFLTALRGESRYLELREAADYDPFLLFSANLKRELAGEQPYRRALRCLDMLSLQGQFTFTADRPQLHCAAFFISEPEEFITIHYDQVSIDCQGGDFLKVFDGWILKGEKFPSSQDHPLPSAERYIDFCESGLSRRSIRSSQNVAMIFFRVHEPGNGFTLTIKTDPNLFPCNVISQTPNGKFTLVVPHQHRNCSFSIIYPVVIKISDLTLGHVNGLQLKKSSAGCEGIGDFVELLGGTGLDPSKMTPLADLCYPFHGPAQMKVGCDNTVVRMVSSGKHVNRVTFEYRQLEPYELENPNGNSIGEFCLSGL
Nature of the test: Dose Response confirmation of uHTS hits for small molecule antagonists of the CRF-binding protein and CRF-R2 receptor complex. Format: functional. To be noted: read-out: IC50_Mean.

Test [7] has as its target T2, Corticotropin-releasing factor receptor 2/Corticotropin-releasing factor-binding protein. Put plainly: activators of CRF receptor 2 with binding protein – uHTS hits, confirmation (AID 602473). Particulars: read-out: EC50_Mean. Format: functional.
The target of test [8] is T3, Cytochrome P450 1A2 (Homo sapiens, UniProt P05177).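 Note: PubChem cytochrome P450 panel assay, CYP1A2 panel member.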
T3 sequence (P05177 whole entry): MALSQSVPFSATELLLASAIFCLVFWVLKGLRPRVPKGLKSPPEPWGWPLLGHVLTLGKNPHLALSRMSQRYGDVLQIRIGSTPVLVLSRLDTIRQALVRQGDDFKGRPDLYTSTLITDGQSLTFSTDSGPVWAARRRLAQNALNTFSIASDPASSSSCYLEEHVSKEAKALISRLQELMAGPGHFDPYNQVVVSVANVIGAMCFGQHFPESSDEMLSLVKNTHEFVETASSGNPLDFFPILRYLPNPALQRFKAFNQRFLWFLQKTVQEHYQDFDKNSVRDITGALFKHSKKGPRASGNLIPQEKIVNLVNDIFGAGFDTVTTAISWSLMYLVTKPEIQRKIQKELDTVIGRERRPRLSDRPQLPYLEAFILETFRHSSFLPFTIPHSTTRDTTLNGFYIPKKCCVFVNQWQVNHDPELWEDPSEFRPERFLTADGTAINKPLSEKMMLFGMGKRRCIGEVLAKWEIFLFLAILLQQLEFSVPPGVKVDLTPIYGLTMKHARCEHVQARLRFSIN

Where “and” joins values, the source holds several entries; their conditions need not be identical. Equal entries are not always repeated. Calls of active or inactive are those of the source. A value given as a limit tells only on which side of the number the result lay.

Cytochrome P450 2D6, sequence (P10635 whole entry): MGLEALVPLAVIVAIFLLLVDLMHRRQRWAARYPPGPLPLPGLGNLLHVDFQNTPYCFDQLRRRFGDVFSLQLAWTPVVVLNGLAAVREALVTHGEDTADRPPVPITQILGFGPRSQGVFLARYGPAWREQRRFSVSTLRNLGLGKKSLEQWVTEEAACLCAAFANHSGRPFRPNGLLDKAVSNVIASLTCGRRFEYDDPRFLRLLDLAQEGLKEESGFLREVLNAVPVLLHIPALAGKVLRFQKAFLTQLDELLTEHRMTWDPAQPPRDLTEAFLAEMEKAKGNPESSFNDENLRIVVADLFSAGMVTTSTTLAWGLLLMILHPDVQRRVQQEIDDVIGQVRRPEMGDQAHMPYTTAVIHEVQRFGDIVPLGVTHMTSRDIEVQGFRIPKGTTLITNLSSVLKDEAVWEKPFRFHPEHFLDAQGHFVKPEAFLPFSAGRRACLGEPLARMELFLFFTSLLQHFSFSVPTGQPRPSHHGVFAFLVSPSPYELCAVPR

With `O=C(NCCN1CCCCC1)Nc1ccccc1Cl`, in test [1], the EC50 is reported as > 195 µM (not active).
`Cc1onc(-c2ccccc2)c1C(=O)OCc1nnc(-c2ccccc2)o1`: the EC50 in test [2] was > 260 µM (inactive).
Regarding `CC(C)(C)c1ccc(/C=C(\C#N)C(=O)Nc2ccccn2)cc1`, the EC50 in test [1] is recorded as > 195 µM (not active).
With `Cc1[nH]n(-c2ccccc2)c(=O)c1/C=N/CCc1ccccc1`, the EC50 in test [2] was 85.4 µM (active).
Usually AC50 stands for the midpoint of the concentration-response curve, whichever way the signal moves. For `CCC(=O)NCc1c(Cl)cccc1-n1cccc1`, the AC50 is 15.8 µM (inconclusive) in test [3], 25.1 µM (inconclusive) in test [4] and 15.8 µM (inconclusive) in test [5].
Regarding `COc1ccc(C(=O)/C=C2/C(=O)Nc3ccccc32)cc1OC`, the EC50 in test [2] was > 260 µM (inactive).
Take `COc1ccc2nnc(-c3ccc(C(F)(F)F)cc3)n2n1`: in test [1], the EC50 is > 195 µM (not active).
Still for that read-out and setting: then `CCCC[C@@H]1C[C@H]1[C@@H](NC(=O)c1ccco1)c1ccc(Cl)cc1`, with > 195 µM (not active).
For `CCOc1ccc(OCCSc2nc(N)cc(=O)[nH]2)cc1`, in test [6], the IC50 was > 47.1 µM (inactive). The EC50 in test [7] was > 53 µM (inactive).
`CCOC(=O)C1CCCN(CC(=O)Nc2c(C(=O)OC)[nH]c3ccccc23)C1` (stereo unspecified): in test [2], the EC50 is > 260 µM (inactive).
Consider `CCOc1ccccc1N1CCN(C(=O)C2CSC3(C)CCC(=O)N23)CC1` (stereo unspecified), for which the IC50 in test [6] is > 47.1 µM (inactive). Further, the EC50 in test [7] was > 53 µM (inactive).
In the same order, the values of `Cc1c(C(=O)N2CC(C(=O)N3CCCCC3)Oc3ccccc32)oc2ccccc12` (stereo unspecified) are > 47.1 µM (inactive) and > 53 µM (inactive).
In the same order, the values of `Cc1ccc(S(=O)(=O)N2CCN(C(=O)COc3ccc(C)nc3[N+](=O)[O-])CC2)c(C)c1` are > 47.1 µM (inactive) and > 53 µM (inactive).
Take `CCC(C)[C@H](NC(=O)NCc1cccc(OC)c1)C(=O)O` (stereo partly specified): in test [1], the EC50 is recorded as > 195 µM (not active).
With `NC(=NOC(=O)COc1ccc(Br)cc1)c1ccncc1`, the IC50 in test [6] is > 47.1 µM (inactive). In addition, in test [7], the EC50 was > 53 µM (inactive).
`CCN(CC)CCCN1C(=O)c2oc3ccccc3c(=O)c2C1c1cccc(OC)c1OC` (stereo unspecified): the EC50 in test [2] was > 260 µM (inactive).
For the molecule `Cc1nn(C(=O)c2c(-c3ccccc3)noc2C)c(C)c1N=Nc1cc(C(F)(F)F)cc(C(F)(F)F)c1`, the IC50 in test [6] was > 47.1 µM (inactive). Also, in test [7], the EC50 is > 53 µM (inactive).
In the same order, the values of `COc1ccc(OC2C(=O)N(c3cc(C)ccc3C)C2c2ccc(OC)c(OC)c2)cc1` (stereo unspecified) are > 47.1 µM (inactive) and > 53 µM (inactive).
In the same order, the values of `O=C(Nc1ccccn1)C1CCN(S(=O)(=O)c2ccc3ccccc3c2)CC1` are > 47.1 µM (inactive) and > 53 µM (inactive).
As to `CCOC(=O)c1c(CN2CCC(C)CC2)n(C)c2cc(Br)c(OC)cc12`, the EC50 in test [2] is > 260 µM (inactive).
As to `CC(=O)OCCNC(=O)c1cccnc1`, the values for the AC50 in test [8] and in test [4] were 31.6 µM (inconclusive) and 20 µM (inconclusive), respectively.
With `CCCc1c(O)c2ccccc2n(-c2ccccc2)c1=O`, the figures for the AC50 in test [4] and in test [5] were 22.4 µM (inconclusive) and 12.6 µM (inconclusive), respectively.
Turning to `Cc1ccc(/C=C2\Oc3cc(OC(=O)N4CCOCC4)ccc3C2=O)cc1`, the EC50 in test [2] was > 260 µM (inactive).
Take `Brc1ccc(-c2noc(CCc3ccccc3)n2)o1`: the IC50 in test [6] is > 47.1 µM (inactive). The EC50 in test [7] was > 53 µM (inactive).
Taken in the same sequence, the figures for `CCC(C(=O)NCCN1CCOCC1)n1c2ccccc2c2nc(=O)cc(C)n21` (stereo unspecified) were > 47.1 µM (inactive) and > 53 µM (inactive).
In the same order, the values of `COc1cccc(C(=O)Nc2cc(C(=O)NCc3ccc(C)cc3)ccc2N2CCC3(CC2)CC(c2cccc(Br)c2)=NO3)c1` are < 0.368 µM (active) and > 53 µM (inactive).
In the case of `CCCn1c(=O)c2[nH]c(C3CCCC3)nc2n(CCCOC(=O)c2ccc(S(=O)(=O)F)cc2)c1=O`, the AC50 in test [4] and in test [5] was 3.16 µM (inconclusive) throughout.
Turning to `C#CCCCC(=O)Nc1ccccc1`, the AC50 in test [8] was 20 µM (inconclusive); in test [4] it was 25.1 µM (inconclusive).
In the case of `CCC(C)N(C(=O)C(F)(F)F)C(C(=O)NC1CCCCC1)c1ccncc1` (stereo unspecified), in test [1], the EC50 is listed as > 195 µM (not active).
As to `COC(=O)CNC(c1ccccc1)c1cc(Br)ccc1N` (stereo unspecified), the EC50 in test [2] was > 260 µM (inactive).
As for `Cc1ccc2[nH]c3c(c2c1)CCN(C)C3`, in test [1], the EC50 is given as > 195 µM (not active).
As for `COc1ccc(-c2noc(C(=O)NCc3ccc(F)cc3)n2)cc1OC`, the IC50 in test [6] is > 47.1 µM (inactive). The EC50 in test [7] was > 53 µM (inactive).
Take `C=CCNC(=O)c1c(C(F)(F)F)nn(C)c1Cl`: in test [1], the EC50 is recorded as > 195 µM (not active).
As for `CCOC(=O)c1cn2nc(Oc3cccc(F)c3)ccc2n1`, the IC50 in test [6] was > 47.1 µM (inactive). Besides, the EC50 in test [7] was > 53 µM (inactive).
Turning to `CC1Cc2ccccc2N1CC(=O)NC(=O)NCc1ccccc1` (stereo unspecified), the EC50 in test [1] was > 195 µM (not active).
For the molecule `O=C(N/N=C/CCc1ccccc1)c1ccccc1`, the EC50 in test [2] was > 260 µM (inactive).
Regarding `CC(=O)Nc1c(C(=O)Nc2ccc3c(c2)OCO3)oc2ccccc12`, in test [1], the EC50 is given as > 195 µM (not active).
Turning to `COc1ccc(OC)c(CN2CCN(S(=O)(=O)c3ccc(NC(C)=O)cc3)CC2)c1`, the IC50 in test [6] was > 47.1 µM (inactive). In addition, the EC50 in test [7] is > 53 µM (inactive).
On to `O=C(COc1ccc(Cl)cc1)N1CCCC1`, for which the EC50 in test [1] was > 195 µM (not active).
For `O=C(CCCc1cccs1)Nc1ccc2c(c1)OCO2`, in test [6], the IC50 was > 47.1 µM (inactive). Also, the EC50 in test [7] is > 53 µM (inactive).
Take `COc1ccc(C)cc1NC(=O)C(=O)NNC(=O)COc1ccc(Cl)cc1`: the EC50 in test [1] is 14.8 µM (active).
The same measure, in the same setting: then `CCC(=O)N1CCc2cc(S(=O)(=O)NCCC(=O)Nc3ccccc3C)ccc21`, with > 195 µM (not active).
On to `Cc1cc(O)nc(SCc2nc3ccccc3c(=O)n2-c2ccccc2C)n1`, for which the EC50 in test [2] was > 260 µM (inactive).
For `NCCNS(=O)(=O)c1cccc2cnccc12`, the AC50 is 7.94 µM (inconclusive) and 25.1 µM (inconclusive) in test [3]; 20 µM (inconclusive) and 39.8 µM (inconclusive) in test [4].
`OC(CNCc1ccc(F)cc1)(c1ccc(F)cc1)c1ccc(F)cc1`: the EC50 in test [2] is > 260 µM (inactive). For the same molecule, the AC50 in test [5] is 12.6 µM (inconclusive).
With `CN(C)/C=C/C(=O)c1ccc(S(=O)(=O)c2ccccc2)cc1`, in test [1], the EC50 is reported as > 195 µM (not active).
Still for that read-out and setting: then `CCOC(=O)c1c(S(=O)(=O)N2CCCCC2C)c(C)n(C)c1C` (stereo unspecified), with > 195 µM (not active); and `O=C(CSc1nnnn1CCCO)Nc1ccc2c(c1)OCO2`, with > 195 µM (not active).
